Assay results reported in patent US20220040129A1, “TREATMENT OF HYPERAMMONEMIA IN PATIENTS WITH RENAL INSUFFICIENCY” (RECORDATI S.p.A., priority 2019, published 2022).

Assays:
Assay in all cases: In vitro transporter inhibition
Type in all cases: in vitro ADME
human MDR1 = human MDR1 (Homo sapiens, UniProt P08183)
Method: (§1) In vitro drug interaction studies were performed with human transporters. […] Potential interactions with inhibitors of the OAT1 transporter were considered clinically irrelevant.

human OCT2 = target: T1, human OCT2 (Homo sapiens, UniProt O15244)
T1 sequence (O15244 1-555): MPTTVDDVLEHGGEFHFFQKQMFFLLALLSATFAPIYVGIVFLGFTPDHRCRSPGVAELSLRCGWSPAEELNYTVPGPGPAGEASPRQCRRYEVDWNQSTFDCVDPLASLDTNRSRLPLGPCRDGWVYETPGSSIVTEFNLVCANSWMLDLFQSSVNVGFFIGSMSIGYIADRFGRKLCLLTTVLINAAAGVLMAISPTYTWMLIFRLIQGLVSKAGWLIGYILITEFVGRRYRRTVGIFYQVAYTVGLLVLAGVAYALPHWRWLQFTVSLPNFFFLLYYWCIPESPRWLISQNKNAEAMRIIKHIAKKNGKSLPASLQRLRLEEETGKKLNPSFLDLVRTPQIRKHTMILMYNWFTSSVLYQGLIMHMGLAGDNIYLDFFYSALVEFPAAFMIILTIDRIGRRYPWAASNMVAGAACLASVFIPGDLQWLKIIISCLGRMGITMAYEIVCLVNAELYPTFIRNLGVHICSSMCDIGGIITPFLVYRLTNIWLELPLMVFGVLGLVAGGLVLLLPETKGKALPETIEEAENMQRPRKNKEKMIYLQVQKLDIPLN
Method: as §1

human BSEP = human BSEP (Homo sapiens, UniProt O95342)
human BSEP, sequence (O95342 whole entry): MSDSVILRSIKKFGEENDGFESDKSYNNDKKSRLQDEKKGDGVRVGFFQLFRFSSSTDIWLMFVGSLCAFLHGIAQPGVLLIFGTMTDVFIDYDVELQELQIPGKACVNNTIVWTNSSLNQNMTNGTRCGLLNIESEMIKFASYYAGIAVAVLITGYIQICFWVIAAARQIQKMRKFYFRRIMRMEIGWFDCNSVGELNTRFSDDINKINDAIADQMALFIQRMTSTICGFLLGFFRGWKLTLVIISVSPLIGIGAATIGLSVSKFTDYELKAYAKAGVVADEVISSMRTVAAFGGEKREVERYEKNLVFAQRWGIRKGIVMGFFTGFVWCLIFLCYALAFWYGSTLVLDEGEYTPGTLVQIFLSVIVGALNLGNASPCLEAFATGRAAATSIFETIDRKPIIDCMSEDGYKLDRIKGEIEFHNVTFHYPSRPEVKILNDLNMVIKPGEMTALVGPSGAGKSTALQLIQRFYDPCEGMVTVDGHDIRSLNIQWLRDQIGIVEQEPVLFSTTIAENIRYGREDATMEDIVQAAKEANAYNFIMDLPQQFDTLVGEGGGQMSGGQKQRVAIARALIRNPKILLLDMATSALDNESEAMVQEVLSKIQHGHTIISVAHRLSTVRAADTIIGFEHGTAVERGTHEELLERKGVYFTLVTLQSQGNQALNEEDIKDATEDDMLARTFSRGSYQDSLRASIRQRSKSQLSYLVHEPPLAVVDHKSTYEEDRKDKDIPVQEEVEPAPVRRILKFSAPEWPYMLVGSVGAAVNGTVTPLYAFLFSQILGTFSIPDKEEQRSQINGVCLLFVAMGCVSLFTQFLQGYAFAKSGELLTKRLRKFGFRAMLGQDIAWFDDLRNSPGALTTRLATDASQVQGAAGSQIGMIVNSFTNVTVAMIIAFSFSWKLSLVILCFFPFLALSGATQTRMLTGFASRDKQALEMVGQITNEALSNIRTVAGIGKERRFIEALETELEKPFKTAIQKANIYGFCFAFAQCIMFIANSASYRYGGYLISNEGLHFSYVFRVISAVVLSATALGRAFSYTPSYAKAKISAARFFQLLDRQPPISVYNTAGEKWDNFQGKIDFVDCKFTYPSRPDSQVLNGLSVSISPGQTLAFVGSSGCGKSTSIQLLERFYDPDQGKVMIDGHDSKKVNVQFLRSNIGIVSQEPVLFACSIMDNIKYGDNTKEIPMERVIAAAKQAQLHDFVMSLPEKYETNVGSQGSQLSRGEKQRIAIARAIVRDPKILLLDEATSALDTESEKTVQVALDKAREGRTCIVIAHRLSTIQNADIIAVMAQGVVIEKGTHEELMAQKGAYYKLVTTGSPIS
Method: as §1

human MATE1 = target: T2, human MATE1 (Homo sapiens, UniProt Q96FL8)
T2 sequence (Q96FL8 1-570): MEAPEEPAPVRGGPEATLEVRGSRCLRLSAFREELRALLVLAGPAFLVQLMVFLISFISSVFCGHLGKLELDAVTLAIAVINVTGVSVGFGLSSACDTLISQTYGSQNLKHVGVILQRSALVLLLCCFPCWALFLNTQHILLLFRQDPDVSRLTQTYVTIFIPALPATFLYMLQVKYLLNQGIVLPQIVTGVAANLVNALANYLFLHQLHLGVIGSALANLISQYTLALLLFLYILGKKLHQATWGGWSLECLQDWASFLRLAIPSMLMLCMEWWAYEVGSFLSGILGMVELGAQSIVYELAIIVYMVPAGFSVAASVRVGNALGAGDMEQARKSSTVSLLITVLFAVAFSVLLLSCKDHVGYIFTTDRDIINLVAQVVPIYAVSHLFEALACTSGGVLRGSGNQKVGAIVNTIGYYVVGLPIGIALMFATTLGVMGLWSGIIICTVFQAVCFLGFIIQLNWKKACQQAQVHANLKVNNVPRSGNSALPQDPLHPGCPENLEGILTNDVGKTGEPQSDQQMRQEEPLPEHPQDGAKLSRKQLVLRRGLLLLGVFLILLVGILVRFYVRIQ
Method: as §1

human MATE2-K = human MATE2-K (Homo sapiens, UniProt Q86VL8)
human MATE2-K, sequence (Q86VL8 1-566 isoform Q86VL8-3): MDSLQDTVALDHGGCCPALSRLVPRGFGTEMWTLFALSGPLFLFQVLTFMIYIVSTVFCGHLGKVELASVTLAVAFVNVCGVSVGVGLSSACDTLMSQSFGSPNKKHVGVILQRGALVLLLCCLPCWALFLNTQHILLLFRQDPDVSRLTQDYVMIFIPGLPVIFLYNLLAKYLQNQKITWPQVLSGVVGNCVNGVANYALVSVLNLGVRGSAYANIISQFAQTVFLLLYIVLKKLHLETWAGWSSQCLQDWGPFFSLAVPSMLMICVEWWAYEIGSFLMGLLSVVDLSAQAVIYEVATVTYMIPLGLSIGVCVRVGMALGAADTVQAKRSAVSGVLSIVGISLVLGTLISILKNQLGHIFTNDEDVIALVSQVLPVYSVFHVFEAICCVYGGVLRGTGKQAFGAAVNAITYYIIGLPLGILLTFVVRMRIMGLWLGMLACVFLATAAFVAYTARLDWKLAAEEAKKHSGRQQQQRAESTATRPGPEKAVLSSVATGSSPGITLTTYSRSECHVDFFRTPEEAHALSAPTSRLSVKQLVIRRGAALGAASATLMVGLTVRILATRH
Method: as §1

human BCRP = target: T3, human BCRP (Homo sapiens, UniProt Q9UNQ0)
T3 sequence (Q9UNQ0 1-655): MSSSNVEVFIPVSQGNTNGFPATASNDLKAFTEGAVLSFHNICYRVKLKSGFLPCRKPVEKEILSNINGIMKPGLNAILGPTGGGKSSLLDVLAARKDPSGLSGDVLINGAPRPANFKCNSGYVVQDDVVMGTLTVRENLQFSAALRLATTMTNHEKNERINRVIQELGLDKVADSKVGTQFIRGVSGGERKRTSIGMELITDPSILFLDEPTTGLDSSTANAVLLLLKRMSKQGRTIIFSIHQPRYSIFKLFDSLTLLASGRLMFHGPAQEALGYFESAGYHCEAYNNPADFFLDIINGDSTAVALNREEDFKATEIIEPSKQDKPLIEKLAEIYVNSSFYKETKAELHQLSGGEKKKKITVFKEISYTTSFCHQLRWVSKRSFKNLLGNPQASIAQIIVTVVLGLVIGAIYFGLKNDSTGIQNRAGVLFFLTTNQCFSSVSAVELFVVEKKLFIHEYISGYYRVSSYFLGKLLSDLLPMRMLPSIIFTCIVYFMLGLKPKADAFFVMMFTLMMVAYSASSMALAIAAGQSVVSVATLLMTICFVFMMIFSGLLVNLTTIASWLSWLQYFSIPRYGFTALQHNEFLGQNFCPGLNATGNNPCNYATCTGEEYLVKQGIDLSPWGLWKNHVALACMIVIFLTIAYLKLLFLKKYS
Method: as §1

human OAT3 = target: T4, human OAT3 (Homo sapiens, UniProt Q8TCC7)
T4 sequence (Q8TCC7 1-542): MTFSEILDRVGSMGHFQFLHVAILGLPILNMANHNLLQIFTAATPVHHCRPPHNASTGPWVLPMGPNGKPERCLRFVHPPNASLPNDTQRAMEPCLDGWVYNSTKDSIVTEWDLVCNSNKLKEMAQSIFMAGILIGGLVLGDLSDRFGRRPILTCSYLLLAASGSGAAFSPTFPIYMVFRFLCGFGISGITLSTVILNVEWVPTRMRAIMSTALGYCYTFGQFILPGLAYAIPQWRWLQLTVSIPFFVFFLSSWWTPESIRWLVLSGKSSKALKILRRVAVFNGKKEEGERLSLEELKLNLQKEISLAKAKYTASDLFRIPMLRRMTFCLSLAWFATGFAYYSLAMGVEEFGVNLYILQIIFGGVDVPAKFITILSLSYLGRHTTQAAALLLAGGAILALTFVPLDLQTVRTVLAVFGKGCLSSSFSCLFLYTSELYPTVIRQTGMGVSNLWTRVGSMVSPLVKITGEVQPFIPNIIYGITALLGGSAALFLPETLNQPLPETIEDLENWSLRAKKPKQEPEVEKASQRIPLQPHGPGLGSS
Method: as §1

human MDR1, sequence (P08183 whole entry): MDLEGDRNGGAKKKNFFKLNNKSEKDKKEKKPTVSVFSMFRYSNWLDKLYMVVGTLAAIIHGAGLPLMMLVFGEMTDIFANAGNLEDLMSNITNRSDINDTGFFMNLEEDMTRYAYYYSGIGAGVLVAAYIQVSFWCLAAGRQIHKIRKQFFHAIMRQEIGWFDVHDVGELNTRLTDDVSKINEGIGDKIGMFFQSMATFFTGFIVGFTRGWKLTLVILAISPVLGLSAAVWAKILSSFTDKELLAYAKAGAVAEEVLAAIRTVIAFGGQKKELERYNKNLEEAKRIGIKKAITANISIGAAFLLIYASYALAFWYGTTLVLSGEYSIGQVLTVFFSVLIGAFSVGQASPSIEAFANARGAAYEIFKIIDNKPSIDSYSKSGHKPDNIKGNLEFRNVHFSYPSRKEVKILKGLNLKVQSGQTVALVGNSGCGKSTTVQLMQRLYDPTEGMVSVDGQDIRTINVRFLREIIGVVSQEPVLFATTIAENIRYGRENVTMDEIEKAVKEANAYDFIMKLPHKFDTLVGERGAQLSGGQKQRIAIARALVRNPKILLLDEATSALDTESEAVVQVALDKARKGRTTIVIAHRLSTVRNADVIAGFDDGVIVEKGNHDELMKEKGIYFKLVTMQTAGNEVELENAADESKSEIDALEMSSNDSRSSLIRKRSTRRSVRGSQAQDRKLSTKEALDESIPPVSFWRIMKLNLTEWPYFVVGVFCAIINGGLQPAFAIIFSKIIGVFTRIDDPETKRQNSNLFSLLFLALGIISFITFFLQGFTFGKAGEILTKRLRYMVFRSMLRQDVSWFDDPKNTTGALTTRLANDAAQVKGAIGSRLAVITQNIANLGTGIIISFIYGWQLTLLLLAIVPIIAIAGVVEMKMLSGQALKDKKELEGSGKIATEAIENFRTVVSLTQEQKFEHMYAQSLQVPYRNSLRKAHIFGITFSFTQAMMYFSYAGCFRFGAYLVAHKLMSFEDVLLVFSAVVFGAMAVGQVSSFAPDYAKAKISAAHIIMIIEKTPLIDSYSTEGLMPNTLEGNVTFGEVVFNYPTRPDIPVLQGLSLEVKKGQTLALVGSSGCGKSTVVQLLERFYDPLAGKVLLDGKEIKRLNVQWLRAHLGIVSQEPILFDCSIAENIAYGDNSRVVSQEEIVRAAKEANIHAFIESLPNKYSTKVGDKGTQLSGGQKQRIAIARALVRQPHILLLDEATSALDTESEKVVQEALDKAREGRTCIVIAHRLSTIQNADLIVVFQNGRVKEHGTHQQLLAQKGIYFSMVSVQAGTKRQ

NC(=O)N[C@@H](CCC(=O)O)C(=O)O [carglumic acid, N-carbamoyl-L-glutamic acid]
not an inhibitor: Inhibition of human MDR1 efflux transporter (human MDR1) | Inhibition of human OCT2 uptake transporter (human OCT2) | Inhibition of human BSEP efflux transporter (human BSEP) | Inhibition of human MATE1 uptake transporter (human MATE1) | Inhibition of human MATE2-K uptake transporter (human MATE2-K) | Inhibition of human BCRP efflux transporter (human BCRP) | Inhibition of human OAT3 uptake transporter (human OAT3)
